# Target: Amyloid-beta precursor protein (Homo sapiens, UniProt P05067)
# Assay: Inhibition of human amyloid beta (1 to 40) aggregation after 24 hrs by ThT fluorescence assay
# Sequence of Amyloid-beta precursor protein (P05067 whole entry): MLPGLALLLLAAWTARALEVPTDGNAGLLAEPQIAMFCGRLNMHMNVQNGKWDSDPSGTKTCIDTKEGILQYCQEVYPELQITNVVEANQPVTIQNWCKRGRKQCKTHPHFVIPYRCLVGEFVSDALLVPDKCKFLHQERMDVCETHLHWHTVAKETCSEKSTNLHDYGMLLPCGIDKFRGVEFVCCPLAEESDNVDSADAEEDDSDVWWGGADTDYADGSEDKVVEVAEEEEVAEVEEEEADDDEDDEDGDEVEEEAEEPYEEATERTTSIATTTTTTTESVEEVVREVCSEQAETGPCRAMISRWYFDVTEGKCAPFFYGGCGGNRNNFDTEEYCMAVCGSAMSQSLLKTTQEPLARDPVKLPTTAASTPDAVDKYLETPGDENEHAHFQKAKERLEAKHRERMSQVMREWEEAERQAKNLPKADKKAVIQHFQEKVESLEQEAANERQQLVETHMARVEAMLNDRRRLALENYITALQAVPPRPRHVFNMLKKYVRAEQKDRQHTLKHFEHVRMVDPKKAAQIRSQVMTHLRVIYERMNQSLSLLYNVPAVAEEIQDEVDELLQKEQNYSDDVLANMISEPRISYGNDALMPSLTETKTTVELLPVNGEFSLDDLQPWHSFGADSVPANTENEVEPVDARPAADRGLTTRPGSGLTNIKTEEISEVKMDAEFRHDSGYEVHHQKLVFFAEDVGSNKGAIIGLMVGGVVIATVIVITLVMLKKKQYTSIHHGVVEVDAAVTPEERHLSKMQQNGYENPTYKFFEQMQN
row,Structure (SMILES),IC50 [µM]
1,COc1c(O)c(O)c(-c2c(C)c(C/C=C(\C)CC/C=C(\C)CCC=C(C)C)c(OC)c(O)c2O)c(C)c1C/C=C(\C)CC/C=C(\C)CCC=C(C)C,12.3
2,CC(C)=CCC/C(C)=C/CC/C(C)=C/Cc1c(C)cc(O)c(O)c1O,16.7
3,CC(C)=CCC/C(C)=C/CC/C(C)=C/Cc1c(C)cc(O)cc1O,19.9
4,COC(=O)c1c(C)cc(O)c(C/C=C(\C)CC/C=C(\C)CCC=C(C)C)c1O,221
5,CC(C)=CC(=O)C/C(C)=C/CC/C(C)=C/Cc1c(O)cc(C)c(C(=O)O)c1O,151
6,CC(C)=CCC/C(C)=C/CCC1(C)C=Cc2c(O)cc(C)cc2O1 (stereo unspecified),68
7,COc1c(O)c(O)cc(C)c1C/C=C(\C)CC/C=C(\C)CCC=C(C)C,29.3
8,CCCCCCCCCCCCCCC[C@@H](O)C(=O)N[C@@H](CO[C@@H]1O[C@H](CO)[C@@H](O)[C@H](O)[C@H]1O)[C@H](O)/C=C/CC/C=C(\C)CCCCCCCCC [CEREBROSIDE],62.7
9,CC(C)=CCC/C(C)=C/CC[C@@]1(C)C=Cc2c(cc(C)c(C(=O)O)c2O)O1 [DAURICHROMENIC ACID],24.7
10,CC(C)=CCC/C(C)=C/CC/C(C)=C/Cc1c(O)cc(C)c(C(=O)O)c1O [GRIFOLIC ACID],20.3
11,CC(C)=CCC/C(C)=C/CC/C(C)=C/Cc1c(O)cc(C)cc1O [GRIFOLIN],149

# — ChEMBL document CHEMBL4602629, “Isolation of three new meroterpenoids and seven known compounds from Albatrellus yasudae and their Aβ-aggregation inhibitory activity” (Bioorg Med Chem Lett, 2020)
